Assay results: patent EP1421935A1 (Casini, Angela, priority 2002, dated 2004)
Read-outs that look alike come from different tables or passages of the source.

How the values were obtained:
hCA II = hCA II (Homo sapiens, UniProt P00918); assay: CA inhibition, esterase method (4-nitrophenylacetate hydrolysis)
Experimental: (§1) Stock solutions of inhibitor (1 mM) are prepared in distilled-deionized water with 10-20% (v/v) DMSO (which is not inhibitory at these concentrations) and dilutions up to 0.01 nM are done thereafter with distilled-deionized water. Inhibitor and enzyme solutions are preincubated together for 10 min at room temperature prior to assay, in order to allow for the formation of the E-I complex.

hCA I = hCA I (Homo sapiens, UniProt P00915); assay: as above
Experimental: as §1

bCA IV = target: T1, bCA IV (Bos taurus, UniProt Q95323); assay: as above
T1 sequence (Q95323 19-284): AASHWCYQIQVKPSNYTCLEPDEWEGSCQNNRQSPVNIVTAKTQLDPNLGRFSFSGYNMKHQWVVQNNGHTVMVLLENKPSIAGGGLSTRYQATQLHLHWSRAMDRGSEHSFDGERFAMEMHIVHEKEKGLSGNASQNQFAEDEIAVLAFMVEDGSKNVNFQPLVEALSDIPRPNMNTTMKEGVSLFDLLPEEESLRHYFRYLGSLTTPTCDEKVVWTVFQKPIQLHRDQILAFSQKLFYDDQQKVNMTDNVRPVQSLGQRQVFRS
Experimental: as §1

[1] = transcorneal penetration of drugs (in vitro corneal permeability); details: rate constant of transfer across excised rabbit cornea, pH 7.4
Experimental: The determination of transcorneal penetration of drugs is performed as follows. […] Excised rabbit corneas with either intact or denuded epithelium are used in these experiments. The pH is 7.4 and exposed area is 1.2 cm^2. Concentrations of drug of 40 - 2000 µM are placed in the epithelial chamber and samples of fluid are collected from the endothelial chamber at different intervals, up to 4 hr.

Sequence of hCA I (P00915 whole entry): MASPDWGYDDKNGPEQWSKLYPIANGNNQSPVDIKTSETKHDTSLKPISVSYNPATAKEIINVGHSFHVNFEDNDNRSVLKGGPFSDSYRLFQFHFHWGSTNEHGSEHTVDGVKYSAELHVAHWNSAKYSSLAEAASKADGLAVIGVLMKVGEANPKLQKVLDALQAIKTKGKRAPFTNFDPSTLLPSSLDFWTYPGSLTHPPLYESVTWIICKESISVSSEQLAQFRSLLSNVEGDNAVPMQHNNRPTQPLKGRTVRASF

CC(NC(=S)NCc1ccc(S(N)(=O)=O)cc1)C(=O)NC(Cc1ccccc1)C(=O)O (stereo not drawn) [B43]
Ki (hCA II): 0.003 µM | Ki (hCA I): 0.021 µM | Ki (bCA IV): 10 nM

CC(C)C(NC(=S)NCc1ccc(S(N)(=O)=O)cc1)C(=O)O (stereo not drawn) [B24]
Ki (hCA II): 0.004 µM | Ki (hCA I): 0.02 µM | Ki (bCA IV): 9 nM

NS(=O)(=O)c1ccc(CNC(=S)NCCC(=O)O)cc1 [B16]
Ki (hCA II): 0.008 µM | Ki (hCA I): 0.039 µM | Ki (bCA IV): 28 nM

NS(=O)(=O)c1ccc(CNC(=S)NCCc2ccccc2)cc1 [B9]
Ki (hCA II): 0.039 µM | Ki (hCA I): 0.126 µM | Ki (bCA IV): 76 nM

NS(=O)(=O)c1ccc(CNC(=S)NC(Cc2cnc[nH]2)C(=O)O)cc1 (stereo not drawn) [B32]
Ki (hCA II): 0.006 µM | Ki (hCA I): 0.033 µM | Ki (bCA IV): 14 nM

NS(=O)(=O)c1ccc(CNC(=S)N2CCCC2C(=O)NCC(=O)NCC(=O)O)cc1 (stereo not drawn) [B46]
Ki (hCA II): 0.003 µM | Ki (hCA I): 0.022 µM | Ki (bCA IV): 8 nM

NS(=O)(=O)c1ccc(CNC(=S)NC(CC(=O)O)C(=O)O)cc1 (stereo not drawn) [B27]
Ki (hCA II): 0.007 µM | Ki (hCA I): 0.027 µM | Ki (bCA IV): 15 nM

NC(=O)CCC(NC(=S)NCc1ccc(S(N)(=O)=O)cc1)C(=O)O (stereo not drawn) [B30]
Ki (hCA II): 0.009 µM | Ki (hCA I): 0.036 µM | Ki (bCA IV): 21 nM

NCCCCC(NC(=S)NCc1ccc(S(N)(=O)=O)cc1)C(=O)O (stereo not drawn) [B37]
Ki (hCA II): 0.01 µM | Ki (hCA I): 0.073 µM | Ki (bCA IV): 34 nM

NS(=O)(=O)c1ccc(CNC(=S)NC(CCC(=O)O)C(=O)O)cc1 (stereo not drawn) [B29]
Ki (hCA II): 0.01 µM | Ki (hCA I): 0.039 µM | Ki (bCA IV): 23 nM

NS(=O)(=O)c1ccc(CNC(=S)NCC(=O)O)cc1 [B14, 1-(4-Sulfamoylphenylmethyl)-3-(carboxymethyl)-thiourea]
Ki (hCA II): 0.017 µM | Ki (hCA I): 0.056 µM | Ki (bCA IV): 34 nM

NS(=O)(=O)c1ccc(CNC(=S)NCCCC(=O)O)cc1 [B17]
Ki (hCA II): 0.01 µM | Ki (hCA I): 0.04 µM | Ki (bCA IV): 27 nM

CC(C)CC(NC(=S)NCc1ccc(S(N)(=O)=O)cc1)C(=O)O (stereo not drawn) [B25]
Ki (hCA II): 0.003 µM | Ki (hCA I): 0.017 µM | Ki (bCA IV): 11 nM

NS(=O)(=O)c1ccc(CNC(=S)NC(Cc2cnc[nH]2)C(=O)NC(Cc2ccccc2)C(=O)O)cc1 (stereo not drawn) [B42]
Ki (hCA II): 0.002 µM | Ki (hCA I): 0.019 µM | Ki (bCA IV): 7 nM

NS(=O)(=O)c1ccc(CNC(=S)NCCc2ccccn2)cc1 [B8]
Ki (hCA II): 0.038 µM | Ki (hCA I): 0.12 µM | Ki (bCA IV): 75 nM

NS(=O)(=O)c1ccc(CNC(=S)NC(Cc2c[nH]c3ccccc23)C(=O)O)cc1 (stereo not drawn) [B36]
Ki (hCA II): 0.009 µM | Ki (hCA I): 0.042 µM | Ki (bCA IV): 17 nM

NS(=O)(=O)c1ccc(CNC(=S)NC(Cc2ccc(O)c(O)c2)C(=O)O)cc1 (stereo not drawn) [B35]
Ki (hCA II): 0.006 µM | Ki (hCA I): 0.03 µM | Ki (bCA IV): 14 nM

CCC(C)C(NC(=S)NCc1ccc(S(N)(=O)=O)cc1)C(=O)O (stereo not drawn) [B26, 1-(4-Sulfamoylphenylmethyl)-3-(1-carboxy-2-methyl-butyl)-thiourea]
Ki (hCA II): 0.004 µM | Ki (hCA I): 0.018 µM | Ki (bCA IV): 8 nM

NS(=O)(=O)c1ccc(CNC(=S)N2CCCC2C(=O)O)cc1 (stereo not drawn) [B31]
Ki (hCA II): 0.021 µM | Ki (hCA I): 0.089 µM | Ki (bCA IV): 55 nM

CC(=O)Nc1nnc(S(N)(=O)=O)s1 [Acetazolamide, acetazolamide, reference compound]
kin x 10^3 (hr^-1) No epithelium ([1]; denuded epithelium): 7.0 hr^-1 | kin x 10^3 (hr^-1) Cornea intact ([1]; intact epithelium): 0.37 hr^-1

NS(=O)(=O)c1ccc(CNC(=S)NC(Cc2ccccc2)C(=O)O)cc1 (stereo not drawn) [B33, 1-(4-Sulfamoylphenylmethyl)-3-(1-carboxy-2-phenyl-ethyl)-thiourea]
Ki (hCA II): 0.005 µM | Ki (hCA I): 0.027 µM | Ki (bCA IV): 14 nM

NS(=O)(=O)c1ccc(CNC(=S)NCCc2c[nH]cn2)cc1 [B10, 1-(4-Sulfamoylphenylmethyl)-3-[(1H-imidazol)-4-yl-ethyl]-thiourea]
Ki (hCA II): 0.03 µM | Ki (hCA I): 0.088 µM | Ki (bCA IV): 52 nM

CSCCC(NC(=S)NCc1ccc(S(N)(=O)=O)cc1)C(=O)O (stereo not drawn) [B23]
Ki (hCA II): 0.003 µM | Ki (hCA I): 0.019 µM | Ki (bCA IV): 10 nM

NS(=O)(=O)c1ccc(CNC(=S)NC(Cc2ccc(O)cc2)C(=O)O)cc1 (stereo not drawn) [B34]
Ki (hCA II): 0.003 µM | Ki (hCA I): 0.024 µM | Ki (bCA IV): 9 nM

CC(NC(=S)NCc1ccc(S(N)(=O)=O)cc1)C(=O)O (stereo not drawn) [B15]
Ki (hCA II): 0.01 µM | Ki (hCA I): 0.048 µM | Ki (bCA IV): 29 nM

CC(O)C(NC(=S)NCc1ccc(S(N)(=O)=O)cc1)C(=O)O (stereo not drawn) [B21]
Ki (hCA II): 0.002 µM | Ki (hCA I): 0.024 µM | Ki (bCA IV): 13 nM

NS(=O)(=O)c1ccc(CN=C=S)cc1 [B, 4-isothiocyanatomethyl-benzenesulfonamide]
Ki (hCA II): 0.162 µM | Ki (hCA I): 4.3 µM | Ki (bCA IV): 270 nM

N=C(N)NCCCC(NC(=S)NCc1ccc(S(N)(=O)=O)cc1)C(=O)O (stereo not drawn) [B38]
Ki (hCA II): 0.018 µM | Ki (hCA I): 0.103 µM | Ki (bCA IV): 56 nM

CC(C)CC(NC(=S)NCc1ccc(S(N)(=O)=O)cc1)C(=O)NCC(=O)O (stereo not drawn) [B44]
Ki (hCA II): 0.004 µM | Ki (hCA I): 0.02 µM | Ki (bCA IV): 11 nM

NS(=O)(=O)c1ccc(CNC(=S)NC(Cc2cnc[nH]2)C(=O)NCC(=O)O)cc1 (stereo not drawn) [B41]
Ki (hCA II): 0.001 µM | Ki (hCA I): 0.012 µM | Ki (bCA IV): 5 nM

NS(=O)(=O)c1ccc(CNC(=S)NC(CC(=O)O)C(=O)NC(CC(=O)O)C(=O)NC(CC(=O)O)C(=O)NC(CC(=O)O)C(=O)O)cc1 (stereo not drawn) [B47]
Ki (hCA II): 0.009 µM | Ki (hCA I): 0.051 µM | Ki (bCA IV): 24 nM

NS(=O)(=O)c1ccc(CNC(=S)NCc2ccccn2)cc1 [B7]
Ki (hCA II): 0.043 µM | Ki (hCA I): 0.124 µM | Ki (bCA IV): 74 nM

NS(=O)(=O)c1ccc(CNC(=S)NC(CC(=O)O)C(=O)NC(CC(=O)O)C(=O)O)cc1 (stereo not drawn) [B45]
Ki (hCA II): 0.012 µM | Ki (hCA I): 0.037 µM | Ki (bCA IV): 25 nM

NS(=O)(=O)c1cc(Cl)c(Cl)c(S(N)(=O)=O)c1 [Dichlorophenamide 6, dichlorophenamide, reference compound]
Ki (bCA IV; read-out: KI (nM) bCA IV, From bovine lung microsomes, by the esterase method, pH 7.40, 25°C): 380 nM

NS(=O)(=O)c1ccc(CNC(=S)NCC(=O)NCC(=O)O)cc1 [B39]
Ki (hCA II): 0.013 µM | Ki (hCA I): 0.05 µM | Ki (bCA IV): 26 nM
